For 15 compounds, MEC results are on record in US9776997B2, “3-aryl-substituted imidazo[1,2-A]pyridines and their use” (Bayer Pharma Aktiengesellschaft, priority 2013, dated 2017).

In this test the target is T1, recombinant guanylate cyclase reporter cell line (Rattus norvegicus, UniProt P19686+P20595).
T1 construct: expressed in transfected cells; host or cells: recombinant reporter cell line
T1 sequence (P19686 1-690): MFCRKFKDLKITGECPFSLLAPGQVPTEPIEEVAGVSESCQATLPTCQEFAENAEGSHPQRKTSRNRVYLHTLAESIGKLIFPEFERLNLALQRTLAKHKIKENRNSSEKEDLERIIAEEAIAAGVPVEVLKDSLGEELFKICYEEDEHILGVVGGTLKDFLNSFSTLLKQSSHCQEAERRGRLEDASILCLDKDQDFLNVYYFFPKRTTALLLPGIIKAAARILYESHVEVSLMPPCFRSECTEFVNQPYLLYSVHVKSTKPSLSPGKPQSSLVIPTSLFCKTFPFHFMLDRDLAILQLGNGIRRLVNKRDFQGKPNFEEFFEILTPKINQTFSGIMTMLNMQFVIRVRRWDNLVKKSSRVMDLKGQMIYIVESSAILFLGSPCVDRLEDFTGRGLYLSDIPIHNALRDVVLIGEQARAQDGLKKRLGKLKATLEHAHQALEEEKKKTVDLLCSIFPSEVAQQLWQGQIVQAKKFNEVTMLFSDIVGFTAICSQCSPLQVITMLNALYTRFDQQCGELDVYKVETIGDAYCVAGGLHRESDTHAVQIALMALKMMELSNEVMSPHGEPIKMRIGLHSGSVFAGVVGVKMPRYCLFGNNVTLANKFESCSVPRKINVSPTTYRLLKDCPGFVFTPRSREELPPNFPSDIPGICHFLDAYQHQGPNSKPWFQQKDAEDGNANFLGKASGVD
T1 sequence (P20595 1-619): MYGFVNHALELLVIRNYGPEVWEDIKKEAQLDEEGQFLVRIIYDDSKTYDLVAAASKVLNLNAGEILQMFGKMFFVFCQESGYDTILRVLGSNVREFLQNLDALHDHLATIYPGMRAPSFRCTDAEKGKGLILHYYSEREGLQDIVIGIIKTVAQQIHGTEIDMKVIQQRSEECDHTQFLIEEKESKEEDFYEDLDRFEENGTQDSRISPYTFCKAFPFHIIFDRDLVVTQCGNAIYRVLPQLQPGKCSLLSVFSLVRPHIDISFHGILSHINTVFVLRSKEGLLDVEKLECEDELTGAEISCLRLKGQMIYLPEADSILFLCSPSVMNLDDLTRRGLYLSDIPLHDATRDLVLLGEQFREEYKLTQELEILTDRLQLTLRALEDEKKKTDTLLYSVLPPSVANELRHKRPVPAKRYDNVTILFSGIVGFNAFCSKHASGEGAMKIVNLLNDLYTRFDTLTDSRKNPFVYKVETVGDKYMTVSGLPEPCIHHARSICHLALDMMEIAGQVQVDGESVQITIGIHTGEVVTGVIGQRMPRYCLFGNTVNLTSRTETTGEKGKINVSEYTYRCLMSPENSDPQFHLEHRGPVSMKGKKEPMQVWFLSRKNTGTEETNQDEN
Briefly: Effect on a recombinant guanylate cyclase reporter cell line. The test is classed as cell-based. Conditions: MEC = minimum effective concentration; in some cases mean values for individual determinations. Here is the method: B-2. Effect on a Recombinant Guanylate Cyclase Reporter Cell Line
The cellular effect of the inventive compounds is determined using a recombinant guanylate cyclase reporter cell line, as described in F. Wunder et al., Anal. Biochem. 339, 104-112 (2005).
Representative MEC values (MEC=minimum effective concentration) for the inventive compounds are shown in the table below (in some cases as mean values for individual determinations): […]
For `Cc1nc2c(OCc3c(F)cccc3F)cccn2c1-c1ccncc1` [Example 29, 8-[(2,6-difluorobenzyl)oxy]-2-methyl-3-(pyridin-4-yl)imidazo[1,2-a]pyridine], the MEC is 1.0 µM.
Consider `Cc1ccc(-c2c(C)nc3c(OCc4c(F)cccc4F)cccn23)cc1` [Example 30, 8-[(2,6-difluorobenzyl)oxy]-2-methyl-3-(4-methylphenyl)imidazo[1,2-a]pyridine], for which the MEC was determined as 3.0 µM.
To `Cc1nc2c(OCc3c(F)cccc3F)cccn2c1-c1ccc(Oc2ccccc2)cc1` [Example 31, 8-[(2,6-difluorobenzyl)oxy]-2-methyl-3-(4-phenoxyphenyl)imidazo[1,2-a]pyridine] belongs 3.0 µM.
To `C=Cc1ccc(-c2c(C)nc3c(OCc4c(F)cccc4F)cccn23)cc1` [Example 32, 8-[(2,6-difluorobenzyl)oxy]-2-methyl-3-(4-vinylphenyl)imidazo[1,2-a]pyridine] belongs 3.0 µM; to `CSc1cccc(-c2c(C)nc3c(OCc4c(F)cccc4F)cccn23)c1` [Example 33, 8-[(2,6-difluorobenzyl)oxy]-2-methyl-3-[3-(methylsulphanyl)phenyl]imidazo[1,2-a]pyridine], 3.0 µM; to `Cc1nc2c(OCc3c(F)cccc3F)cccn2c1-c1cccc(Cl)c1` [Example 34, 3-(3-chlorophenyl)-8-[(2,6-difluorobenzyl)oxy]-2-methylimidazo[1,2-a]pyridine], 3.0 µM.
For the compound `Cc1nc2c(OCc3c(F)cccc3F)cccn2c1-c1csc2ccccc12` [Example 35, 3-(1-benzothiophen-3-yl)-8-[(2,6-difluorobenzyl)oxy]-2-methylimidazo[1,2-a]pyridine], the MEC stood at 3.0 µM.
In the case of `Cc1nc2c(OCc3c(F)cccc3F)cccn2c1-c1ccc2c(ccn2C)c1` [Example 36, 8-[(2,6-difluorobenzyl)oxy]-2-methyl-3-(1-methyl-1H-indol-5-yl)imidazo[1,2-a]pyridine] it was 3.0 µM.
As to `Cc1nc2c(OCc3c(F)cccc3F)cccn2c1-c1ccc2c(c1)OCCO2` [Example 37, 8-[(2,6-difluorobenzyl)oxy]-3-(2,3-dihydro-1,4-benzodioxin-6-yl)-2-methylimidazo[1,2-a]pyridine], the MEC was 3.0 µM.
In the case of `Cc1nc2c(OCc3c(F)cccc3F)cccn2c1-c1cccc(N2CCCCC2)c1` [Example 38, 8-[(2,6-difluorobenzyl)oxy]-2-methyl-3-[3-(piperidin-1-yl)phenyl]imidazo[1,2-a]pyridine] it was 3.0 µM; in that of `Cc1nc2c(OCc3c(F)cccc3F)cccn2c1-c1ccc(CN2CCOCC2)c(F)c1` [Example 39, 8-[(2,6-difluorobenzyl)oxy]-3-[3-fluoro-4-(morpholin-4-ylmethyl)phenyl]-2-methylimidazo[1,2-a]pyridine], 3.0 µM; in that of `Cc1nc2c(OCc3c(F)cccc3F)cccn2c1-c1ccc(C(N)=O)cc1` [Example 40, 4-{8-[(2,6-difluorobenzyl)oxy]-2-methylimidazo[1,2-a]pyridin-3-yl}benzamide], 3.0 µM.
To `COc1ccc(-c2c(C)nc3c(OCc4c(F)cccc4F)cccn23)cc1CN1CCOCC1` [Example 41, 8-[(2,6-difluorobenzyl)oxy]-3-[4-methoxy-3-(morpholin-4-ylmethyl)phenyl]-2-methylimidazo[1,2-a]pyridine] belongs 3.0 µM; to `Cc1nc2c(OCc3c(F)cccc3F)cccn2c1-c1cccc(CN2CCCCC2)c1` [Example 42, 8-[(2,6-difluorobenzyl)oxy]-2-methyl-3-[3-(piperidin-1-ylmethyl)phenyl]imidazo[1,2-a]pyridine], 3.0 µM.
To `CCN(CC)Cc1ccc(-c2c(C)nc3c(OCc4c(F)cccc4F)cccn23)cc1F` [Example 43, N-(4-{8-[(2,6-difluorobenzyl)oxy]-2-methylimidazo[1,2-a]pyridin-3-yl}-2-fluorobenzyl)-N-ethylethanamine] belongs 3.0 µM.
